# Laboratory results published in patent publication US20070203202A1, “Methods of reducing adverse events associated with pirfenidone therapy” (priority 2005, published 2007).
# Read-outs that look alike come from different tables or passages of the source.
# How the values were obtained:
# [1] = Pharmacokinetics of an 801 mg pirfenidone dose taken with or without food; type: in vivo, human; conditions: for half-life: human, plasma, oral, 801 mg, read-out: mean absorption half life (converted)
# Description: (§1) A study was designed to evaluate the effect of food, antacids, and food taken with antacids on adverse events associated with pirfenidone use. The trial was conducted as a randomized, open-label, four-treatment crossover, with a single dose for each treatment period and a 2-day washout period between study treatments. 16 healthy adults between the ages of 50 and 79 years having body mass indices between 18 and 30 (inclusive) were enrolled and completed all 4 treatment arms. The treatment arms were as follows:
# (§2) All subjects were admitted to the clinic for clinical evaluation the day prior to receiving the first dose of the study medication and remained confined for 13 days. Following an overnight fast of at least 10 hours (h), subjects were randomized to one of the above-described 4 treatment sequences. Each dose of pirfenidone (3×267 mg capsules) was administered orally with 240 mL room temperature water on days 1, 4, 7, and 10 in the morning, following an overnight fast of at least 10 hours. The washout period between treatments was 2 days. A standard meal consisted of 2 fried eggs, 2 strips of bacon, 2 slices of toast, 2 pats of butter, hash brown potatoes (4 oz), and whole milk (8 oz).
# Of 7 subjects who reported nausea, 5 of 16 (31%) were fasted compared to only 2 of 16 (13%) fed subjects. Of 5 subjects reporting dizziness, 4 of 16 (25%) were fasted, while only 1 of 16 (6%) was fed. Of 3 subjects reporting somnolence, 2 of 16 (13%) were fasted and 1 of 16 (6%) were fed. Of 3 subjects reporting headaches, 2 of 16 (13%) were fasted and 1 of 16 (6%) were fed.
# [2] = tested on: TNF-α; conditions: macrophages and other cells; Cain et al. 1998; cited from earlier work
# [3] = Multiple-dose escalating-dose study of adverse events, doses taken with food; type: in vivo, human; conditions: 801 to 4005 mg/day escalating
# Description: A second study was designed to examine incidences of adverse events on multiple ascending daily doses of pirfenidone. The trial was conducted as an open-label, escalating-dose study with no washout period between dose escalations. 25 healthy adults between the ages of 45 and 79 (inclusive) having body mass indices between 18 and 30 (inclusive) were enrolled. 22 adults completed the treatment. Each volunteer received from 801 mg/day to 4005 mg/day of pirfenidone divided into three equal doses as follows:
# All subjects were admitted to the clinic for clinical evaluation the day before the first dose of study medication and remained confined for 17 days. Each subject received all dose levels of the study drug unless adverse events or the clinical judgment of the trial physician precluded the continuation of treatment. All doses were taken with 240 mL room temperature water and with food (excluding grapefruit juice). TID doses times were ˜0800, ˜1200, and ˜1800.
# [4] = Single-dose four-treatment crossover study of the effect of food and antacid on adverse events; type: in vivo, human; conditions: for subjects who experienced an adverse event: single oral dose 3×267 mg, 16 healthy adults
# Description: as §1
# A) pirfenidone alone (Fasted);
# B) pirfenidone within 1 minute following a dose of antacid (20 mL Mylanta® Maximum Strength Liquid) (Fasted+Antacid);
# C) pirfenidone 5 minutes after completing a standard meal (Fed); and
# D) pirfenidone 5 minutes after completing a standard meal, then within 1 minute, followed by a dose of antacid (Fed+Antacid).
# as §2
# On each study day, adverse events were reviewed with the patients as follows. Before administration of the first dose of the study drug, study site personnel noted the occurrence and nature of each subject's medical condition(s). During the trial, site personnel again noted any change in the condition(s) or occurrence and nature of any adverse events. The severity of adverse events were graded based on the Modified Common Toxicity Criteria and the relationship of the study drug to the adverse event determined.
# [5] = tested on: fibrogenic cytokines such as TGF-β1, bFGF, PDGF, and EGF; conditions: Zhang S et al. 1998; cited from earlier work
# [6] = 801 mg pirfenidone without food
smiles,measurement,setting,value
"Cc1ccc(=O)n(-c2ccccc2)c1 [pirfenidone, 5-methyl-1-phenyl-2-(1H)-pyridone]",mean maximum plasma concentration,[1]; 801 mg pirfenidone with food,7874 ng/mL
same,mean maximum plasma concentration,[1]; [6],15724 ng/mL
same,half-life,[1]; 801 mg pirfenidone with food,1.78 h
same,half-life,[1]; [6],0.572 h
same,effect on synthesis and release of TNF-α,[2],blocks the synthesis and release of excessive amounts of TNF-α
same,subjects with at least one adverse event,"[3]; TID with food, 23 of 25 healthy adults",92%
same,incidence of headache,"[3]; with food, 7 of 25",28%
same,incidence of somnolence,"[3]; with food, 8 of 25",32%
same,incidence of nausea,"[3]; with food, 9 of 25",36%
same,subjects with adverse events in whom the adverse events were mild,"[3]; with food, 22 of the 23 subjects",95%
same,incidence of somnolence,"[4]; all arms, 4 of 16",25%
same,incidence of dizziness,"[4]; all arms, 6 of 16",38%
same,incidence of nausea,"[4]; all arms, 7 of 16",44%
same,subjects with adverse events in whom the adverse events were mild,"[4]; all arms, 8 of the 12 subjects with an adverse event",66.7%
same,subjects with at least 1 adverse event in total,"[4]; all four treatment arms, 12 of 16 subjects",75%
same,incidence of headaches,"[4]; fasted, 2 of 16",13%
same,incidence of somnolence,"[4]; fasted, 2 of 16",13%
same,incidence of dizziness,"[4]; fasted, 4 of 16",25%
same,incidence of nausea,"[4]; fasted, 5 of 16",31%
same,incidence of dizziness,"[4]; fed, 1 of 16",6%
same,incidence of headaches,"[4]; fed, 1 of 16",6%
same,incidence of somnolence,"[4]; fed, 1 of 16",6%
same,incidence of nausea,"[4]; fed, 2 of 16",13%
same,subjects who experienced an adverse event,[4]; pirfenidone alone without food (Fasted),56.3%
same,subjects who experienced an adverse event,[4]; with food (Fed),31.3%
same,subjects who experienced an adverse event,[4]; with food and antacid (Fed+Antacid),25%
same,subjects who experienced an adverse event,[4]; within 1 minute following a dose of antacid (Fasted+Antacid),56.3%
same,effect on biosynthesis or release of fibrogenic cytokines,[5],inhibits excessive biosynthesis or release
